Measurements as given in PubChem BioAssay (NCI).
Where “and” joins values, the source holds several entries; their conditions need not be identical. Equal entries are not always repeated.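 These data come from cells grown in 96-well plates and exposed to compound for 48 hours at five concentrations. GI50 = concentration required for 50% inhibition of growth. The concentration for full growth arrest is given as TGI.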

Assays:
Assay in all cases: NCI anticancer screen, dose series, 48 h; in the data active means GI50 below about 0.43 µM; inactive means the rest
UACC-62 melanoma = tested on: UACC-62 melanoma
SF-539 CNS = tested on: SF-539 CNS
SK-MEL-28 melanoma = tested on: SK-MEL-28 melanoma
DMS 273 small cell lung = tested on: DMS 273 small cell lung
LXFL 529 NSCLC = tested on: LXFL 529 NSCLC
SK-MEL-2 melanoma = tested on: SK-MEL-2 melanoma
ACHN renal = tested on: ACHN renal
NCI-H460 lung = tested on: NCI-H460 lung
K-562 leukemia = tested on: K-562 leukemia
IGROV1 ovarian = tested on: IGROV1 ovarian
HOP-18 NSCLC = tested on: HOP-18 NSCLC
HL-60(TB) leukemia = tested on: HL-60(TB) leukemia
SW-620 colon = tested on: SW-620 colon
A498 renal = tested on: A498 renal
HCT-116 colon = tested on: HCT-116 colon
OVCAR-4 ovarian = tested on: OVCAR-4 ovarian
SK-MEL-5 melanoma = tested on: SK-MEL-5 melanoma
M19-MEL melanoma = tested on: M19-MEL melanoma
M14 melanoma = tested on: M14 melanoma
786-0 renal = tested on: 786-0 renal
CCRF-CEM leukemia = tested on: CCRF-CEM leukemia
HCT-15 colon = tested on: HCT-15 colon
MOLT-4 leukemia = tested on: MOLT-4 leukemia
RPMI-8226 leukemia = tested on: RPMI-8226 leukemia
SF-268 CNS = tested on: SF-268 CNS
HOP-62 NSCLC = tested on: HOP-62 NSCLC
SR leukemia = tested on: SR leukemia
SNB-75 CNS = tested on: SNB-75 CNS
COLO 205 colon = tested on: COLO 205 colon
DLD-1 colon = tested on: DLD-1 colon
HCC-2998 colon = tested on: HCC-2998 colon
KM20L2 colon = tested on: KM20L2 colon
SK-OV-3 ovarian = tested on: SK-OV-3 ovarian
SNB-78 CNS = tested on: SNB-78 CNS
TK-10 renal = tested on: TK-10 renal
UACC-257 melanoma = tested on: UACC-257 melanoma
MALME-3M melanoma = tested on: MALME-3M melanoma
DMS 114 small cell lung = tested on: DMS 114 small cell lung
UO-31 renal = tested on: UO-31 renal
OVCAR-3 ovarian = tested on: OVCAR-3 ovarian
SNB-19 CNS = tested on: SNB-19 CNS
CAKI-1 renal = tested on: CAKI-1 renal
OVCAR-8 ovarian = tested on: OVCAR-8 ovarian
RXF-631 renal = tested on: RXF-631 renal
U251 CNS = tested on: U251 CNS
KM12 colon = tested on: KM12 colon
SN12C renal = tested on: SN12C renal
RXF 393 renal = tested on: RXF 393 renal
NCI-H226 lung = tested on: NCI-H226 lung
EKVX NSCLC = tested on: EKVX NSCLC
HT29 colon = tested on: HT29 colon
LOX IMVI melanoma = tested on: LOX IMVI melanoma
HOP-92 NSCLC = tested on: HOP-92 NSCLC
A549 NSCLC = tested on: A549 NSCLC
NCI-H522 lung = tested on: NCI-H522 lung
SF-295 CNS = tested on: SF-295 CNS
OVCAR-5 ovarian = tested on: OVCAR-5 ovarian
NCI-H23 lung = tested on: NCI-H23 lung
XF 498 CNS = tested on: XF 498 CNS

COC(=O)c1sc(=NC(=S)N2CCCCC2)sc1C(=O)OC
> 100 µM: TGI (UACC-62 melanoma) | TGI (SF-539 CNS) | TGI (SK-MEL-28 melanoma) | TGI (DMS 273 small cell lung) | TGI (LXFL 529 NSCLC) | TGI (SK-MEL-2 melanoma) | TGI (ACHN renal) | TGI (NCI-H460 lung) | TGI (K-562 leukemia) | TGI (IGROV1 ovarian) | TGI (HOP-18 NSCLC) | TGI (HL-60(TB) leukemia) | TGI (SW-620 colon) | TGI (A498 renal) | TGI (HCT-116 colon) | TGI (OVCAR-4 ovarian) | TGI (SK-MEL-5 melanoma) | TGI (M19-MEL melanoma) | TGI (M14 melanoma) | TGI (786-0 renal) | TGI (CCRF-CEM leukemia) | TGI (HCT-15 colon) | TGI (MOLT-4 leukemia) | TGI (RPMI-8226 leukemia) | TGI (SF-268 CNS) | TGI (HOP-62 NSCLC) | TGI (SR leukemia) | TGI (SNB-75 CNS) | TGI (COLO 205 colon) | TGI (DLD-1 colon) | TGI (HCC-2998 colon) | TGI (KM20L2 colon) | TGI (SK-OV-3 ovarian) | TGI (SNB-78 CNS) | TGI (TK-10 renal) | TGI (UACC-257 melanoma) | TGI (MALME-3M melanoma) | TGI (DMS 114 small cell lung) | TGI (UO-31 renal) | TGI (SNB-19 CNS) | TGI (CAKI-1 renal) | TGI (OVCAR-8 ovarian) | TGI (RXF-631 renal) | TGI (U251 CNS) | TGI (KM12 colon) | TGI (SN12C renal) | TGI (RXF 393 renal) | TGI (NCI-H226 lung)
34.2 µM: TGI (OVCAR-3 ovarian)

COc1ccc(-c2cc(-c3ccco3)c(C#N)c(=O)[nH]2)cc1
54 µM: TGI (NCI-H522 lung)
40.1 µM: TGI (U251 CNS)
75.7 µM: TGI (MALME-3M melanoma)
53.9 µM: TGI (SF-539 CNS)
74.8 µM: TGI (HOP-18 NSCLC)
> 100 µM: TGI (UACC-62 melanoma) | TGI (EKVX NSCLC) | TGI (SK-MEL-28 melanoma) | TGI (DMS 273 small cell lung) | TGI (LXFL 529 NSCLC) | TGI (ACHN renal) | TGI (NCI-H460 lung) | TGI (K-562 leukemia) | TGI (IGROV1 ovarian) | TGI (HL-60(TB) leukemia) | TGI (HT29 colon) | TGI (SW-620 colon) | TGI (A498 renal) | TGI (HCT-116 colon) | TGI (OVCAR-4 ovarian) | TGI (M19-MEL melanoma) | TGI (M14 melanoma) | TGI (786-0 renal) | TGI (CCRF-CEM leukemia) | TGI (HCT-15 colon) | TGI (MOLT-4 leukemia) | TGI (RPMI-8226 leukemia) | TGI (SF-268 CNS) | TGI (LOX IMVI melanoma) | TGI (SNB-75 CNS) | TGI (HOP-92 NSCLC) | TGI (A549 NSCLC) | TGI (COLO 205 colon) | TGI (DLD-1 colon) | TGI (HCC-2998 colon) | TGI (KM20L2 colon) | TGI (SNB-78 CNS) | TGI (TK-10 renal) | TGI (SF-295 CNS) | TGI (UACC-257 melanoma) | TGI (DMS 114 small cell lung) | TGI (UO-31 renal) | TGI (SNB-19 CNS) | TGI (OVCAR-8 ovarian) | TGI (RXF-631 renal) | TGI (KM12 colon) | TGI (SN12C renal) | TGI (OVCAR-5 ovarian) | TGI (RXF 393 renal) | TGI (NCI-H226 lung) | TGI (NCI-H23 lung)
72.2 µM: TGI (SK-OV-3 ovarian)
72.1 µM: TGI (HOP-62 NSCLC)
53.8 µM: TGI (OVCAR-3 ovarian)

COc1cc([C@@H]2Oc3cc4oc(-c5ccccc5)cc(=O)c4c(O)c3O[C@H]2OC)ccc1O
25.9 µM: TGI (K-562 leukemia) | TGI (RPMI-8226 leukemia)
32.4 µM: TGI (NCI-H23 lung)
15.2 µM: TGI (NCI-H460 lung)
25.2 µM: TGI (LXFL 529 NSCLC)
21.2 µM: TGI (DLD-1 colon)
14.4 µM: TGI (DMS 273 small cell lung)
34.4 µM: TGI (CAKI-1 renal)
16.8 µM: TGI (SK-MEL-28 melanoma)
29.1 µM: TGI (OVCAR-4 ovarian)
39.5 µM: TGI (HOP-92 NSCLC)
24.7 µM: TGI (M14 melanoma)
21.3 µM: TGI (MOLT-4 leukemia)
32.6 µM: TGI (RXF-631 renal)
27.8 µM: TGI (CCRF-CEM leukemia)
34.1 µM: TGI (SK-OV-3 ovarian)
18.5 µM: TGI (SR leukemia)
19.6 µM: TGI (HCT-116 colon)
26.5 µM: TGI (HCC-2998 colon)
20.8 µM: TGI (786-0 renal)
38.4 µM: TGI (NCI-H226 lung)
31.2 µM: TGI (SK-MEL-2 melanoma)
25.1 µM: TGI (SNB-75 CNS)
19.7 µM: TGI (SF-268 CNS)
30.6 µM: TGI (SF-539 CNS) | TGI (MALME-3M melanoma)
8.08 µM: TGI (HL-60(TB) leukemia)
53.1 µM: TGI (IGROV1 ovarian)
50.2 µM: TGI (COLO 205 colon)
24 µM: TGI (M19-MEL melanoma)
23.1 µM: TGI (ACHN renal)
26.9 µM: TGI (HOP-62 NSCLC)
32.3 µM: TGI (A498 renal)
25.5 µM: TGI (SN12C renal)
37.7 µM: TGI (UACC-62 melanoma)
38.2 µM: TGI (SNB-78 CNS)

CC(=O)OCC1OC(n2c(=S)n(-c3ccccc3)c(=O)c3cc(Br)cc(Br)c32)C(OC(C)=O)C(OC(C)=O)C1OC(C)=O (stereo not given)
85.5 µM and > 100 µM: TGI (SNB-19 CNS)
63.3 µM and > 100 µM: TGI (HOP-92 NSCLC)
> 100 µM: TGI (UACC-62 melanoma) | TGI (SF-539 CNS) | TGI (EKVX NSCLC) | TGI (SK-MEL-28 melanoma) | TGI (DMS 273 small cell lung) | TGI (LXFL 529 NSCLC) | TGI (SK-MEL-2 melanoma) | TGI (ACHN renal) | TGI (NCI-H460 lung) | TGI (K-562 leukemia) | TGI (IGROV1 ovarian) | TGI (HL-60(TB) leukemia) | TGI (HT29 colon) | TGI (SW-620 colon) | TGI (A498 renal) | TGI (HCT-116 colon) | TGI (SK-MEL-5 melanoma) | TGI (M19-MEL melanoma) | TGI (M14 melanoma) | TGI (786-0 renal) | TGI (CCRF-CEM leukemia) | TGI (HCT-15 colon) | TGI (MOLT-4 leukemia) | TGI (RPMI-8226 leukemia) | TGI (SF-268 CNS) | TGI (LOX IMVI melanoma) | TGI (SR leukemia) | TGI (A549 NSCLC) | TGI (COLO 205 colon) | TGI (DLD-1 colon) | TGI (HCC-2998 colon) | TGI (KM20L2 colon) | TGI (SK-OV-3 ovarian) | TGI (SNB-78 CNS) | TGI (UACC-257 melanoma) | TGI (MALME-3M melanoma) | TGI (DMS 114 small cell lung) | TGI (UO-31 renal) | TGI (OVCAR-3 ovarian) | TGI (CAKI-1 renal) | TGI (OVCAR-8 ovarian) | TGI (U251 CNS) | TGI (KM12 colon) | TGI (SN12C renal) | TGI (OVCAR-5 ovarian) | TGI (NCI-H226 lung)
76.3 µM and > 100 µM: TGI (RXF 393 renal)
> 100 µM and 84.7 µM: TGI (NCI-H522 lung)
54.8 µM and > 100 µM: TGI (HOP-62 NSCLC)
71.4 µM and > 100 µM: TGI (SF-295 CNS)
inactive: GI50 (SF-539 CNS) 43.9 µM and > 100 µM | GI50 (IGROV1 ovarian) 35.8 µM and > 100 µM | GI50 (XF 498 CNS) 17.2 µM and 49.1 µM | GI50 (M14 melanoma) 28.6 µM and > 100 µM | GI50 (786-0 renal) 25.7 µM and 98.7 µM | GI50 (MOLT-4 leukemia) 36.8 µM | GI50 (RPMI-8226 leukemia) 33.3 µM | GI50 (SF-268 CNS) 35.2 µM and 94.8 µM | GI50 (HOP-62 NSCLC) 19.5 µM and > 100 µM | GI50 (SR leukemia) > 100 µM | GI50 (HOP-92 NSCLC) 15.3 µM and 46.9 µM | GI50 (NCI-H522 lung) > 100 µM and 28.6 µM | GI50 (SK-OV-3 ovarian) 45.1 µM and > 100 µM | GI50 (SF-295 CNS) 11.7 µM and 60.3 µM | GI50 (UACC-257 melanoma) 46.6 µM and > 100 µM | GI50 (UO-31 renal) > 100 µM and 42.9 µM | GI50 (OVCAR-3 ovarian) 47.4 µM and > 100 µM | GI50 (SNB-19 CNS) 28.5 µM and 71.1 µM | GI50 (U251 CNS) 20 µM and 91.9 µM | GI50 (RXF 393 renal) 19.4 µM and 64.2 µM | GI50 (NCI-H23 lung) 19.1 µM and 72.3 µM
69.7 µM and > 100 µM: TGI (XF 498 CNS)
92.5 µM and > 100 µM: TGI (SNB-75 CNS)
92.1 µM and > 100 µM: TGI (NCI-H23 lung)
